Compound in one assay: C=CCNC1=C2C[C@@H](C)C[C@H](OC)[C@H](O)[C@@H](C)/C=C(\C)[C@H](OC(N)=O)[C@@H](OC)/C=C\C=C(/C)C(=O)NC(=CC1=O)C2=O [17-AAG]
Description: surviving fraction relative to DMSO-only wells; higher = less growth inhibition. Particulars: exposure time: 5 days. An outline of the steps:
(§1)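 Viability was scored with CellTiter-Glo luminescence and normalised to the median of DMSO-only wells as surviving fraction. Beforehand, log-phase tumour cell lines were seeded at 250–500 cells per well in 384-well plates, allowed 24 hours, and exposed continuously for five days to inhibitors at 0.5, 1, 5, 10, 50, 100, 500 and 1000 nM. Only lines whose three screens gave replicate Pearson r >0.7 and median Z' >0.3 were kept.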

Compound in a further assay: O=c1[nH]cc(F)c(=O)[nH]1 [FLUOROURACIL]
Described as above. Particulars: exposure time: 5 days. The method, boiled down:
as §1

± gives the standard deviation of the averaged measurements.

Consider G292 BONE, for which the surviving fraction came to 0.928 ± 0.035 with 17-AAG (0.5 nM); 0.934 ± 0.031 in the assay with 17-AAG (1 nM); 0.956 ± 0.052 with 17-AAG (5 nM); 0.792 ± 0.018 in the assay with 17-AAG (10 nM); 0.295 ± 0.018 with 17-AAG (50 nM); 0.266 ± 0.0069 in the assay with 17-AAG (100 nM). Also, the surviving fraction with 17-AAG (500 nM) came to 0.0898 ± 0.01; with 17-AAG (1000 nM), 0.087 ± 0.004; in the assay with FLUOROURACIL (0.5 nM), 0.993 ± 0.028; in the assay with FLUOROURACIL (1 nM) it was 0.965 ± 0.051; in the assay with FLUOROURACIL (5 nM) it was 1.02 ± 0.037; in the assay with FLUOROURACIL (10 nM) it was 1.01 ± 0.03. The surviving fraction with FLUOROURACIL (50 nM) was found to be 0.994 ± 0.051; with FLUOROURACIL (100 nM), 0.939 ± 0.027; in the assay with FLUOROURACIL (500 nM) it was 0.941 ± 0.017; with FLUOROURACIL (1000 nM) it was 0.759 ± 0.054.

As for HCC38 BREAST, the surviving fraction was 0.802 ± 0.19 with 17-AAG (0.5 nM); 0.906 ± 0.26 with 17-AAG (1 nM); 0.293 ± 0.082 with 17-AAG (5 nM); 0.185 ± 0.067 with 17-AAG (10 nM); 0.0753 ± 0.022 in the assay with 17-AAG (50 nM); 0.0727 ± 0.0085 with 17-AAG (100 nM). Also, the surviving fraction stood at 0.059 ± 0.0092 with 17-AAG (500 nM); 0.0613 ± 0.0025 in the assay with 17-AAG (1000 nM); 1.01 ± 0.2 in the assay with FLUOROURACIL (0.5 nM); 0.97 ± 0.11 with FLUOROURACIL (1 nM); 1.02 ± 0.17 with FLUOROURACIL (5 nM); 1.11 ± 0.14 with FLUOROURACIL (10 nM). Moreover, the surviving fraction with FLUOROURACIL (50 nM) turned out to be 0.8 ± 0.092; with FLUOROURACIL (100 nM), 0.727 ± 0.14; with FLUOROURACIL (500 nM) it was 0.689 ± 0.027; with FLUOROURACIL (1000 nM) it was 0.644 ± 0.097.

Regarding HCC70 BREAST, the surviving fraction worked out at 1.01 ± 0.09 with 17-AAG (0.5 nM); 0.971 ± 0.066 with 17-AAG (1 nM); 1.01 ± 0.046 with 17-AAG (5 nM); 0.804 ± 0.0083 with 17-AAG (10 nM); 0.091 ± 0.017 with 17-AAG (50 nM); 0.0907 ± 0.012 with 17-AAG (100 nM). Further, the surviving fraction with 17-AAG (500 nM) worked out at 0.073 ± 0.017; with 17-AAG (1000 nM), 0.0667 ± 0.0091; in the assay with FLUOROURACIL (0.5 nM) it was 1.06 ± 0.054; with FLUOROURACIL (1 nM), 1.08 ± 0.12; in the assay with FLUOROURACIL (5 nM), 1.14 ± 0.083; with FLUOROURACIL (10 nM) it was 1.12 ± 0.028. The surviving fraction was 1.04 ± 0.092 with FLUOROURACIL (50 nM), 1.03 ± 0.06 with FLUOROURACIL (100 nM), 0.778 ± 0.047 with FLUOROURACIL (500 nM) and 0.735 ± 0.053 in the assay with FLUOROURACIL (1000 nM).

Consider HMLE3 BREAST, for which the surviving fraction was found to be 0.875 ± 0.029 with 17-AAG (0.5 nM); 0.889 ± 0.079 with 17-AAG (1 nM); 0.973 ± 0.037 in the assay with 17-AAG (5 nM); 0.925 ± 0.062 with 17-AAG (10 nM); 0.0453 ± 0.0025 in the assay with 17-AAG (50 nM); 0.0247 ± 0.0011 with 17-AAG (100 nM). Also, the surviving fraction in the assay with 17-AAG (500 nM) was determined as 0.021 ± 0.002; with 17-AAG (1000 nM), 0.024 ± 0.001; with FLUOROURACIL (0.5 nM), 1.05 ± 0.097; with FLUOROURACIL (1 nM), 1.11 ± 0.03; with FLUOROURACIL (5 nM), 1.09 ± 0.15; in the assay with FLUOROURACIL (10 nM) it was 1.13 ± 0.043. The surviving fraction with FLUOROURACIL (50 nM) came to 1.06 ± 0.091; in the assay with FLUOROURACIL (100 nM), 0.955 ± 0.065; with FLUOROURACIL (500 nM), 0.838 ± 0.034; with FLUOROURACIL (1000 nM) it was 0.702 ± 0.15.

With HMT3552 BREAST, the surviving fraction with 17-AAG (0.5 nM) amounted to 0.913; in the assay with 17-AAG (1 nM) it was 0.915; with 17-AAG (5 nM) it was 1.15; with 17-AAG (10 nM), 0.904; with 17-AAG (50 nM) it was 0.087; with 17-AAG (100 nM), 0.064. For the same test system, the surviving fraction in the assay with 17-AAG (500 nM) was found to be 0.056; in the assay with 17-AAG (1000 nM), 0.062; with FLUOROURACIL (0.5 nM), 0.951 ± 0.044; with FLUOROURACIL (1 nM), 0.925 ± 0.085; with FLUOROURACIL (5 nM) it was 0.976 ± 0.08; with FLUOROURACIL (10 nM) it was 0.85 ± 0.048. For the same test system, the surviving fraction with FLUOROURACIL (50 nM) stood at 1.01 ± 0.036; with FLUOROURACIL (100 nM), 0.89 ± 0.02; with FLUOROURACIL (500 nM), 0.939 ± 0.1; in the assay with FLUOROURACIL (1000 nM), 0.536 ± 0.033.

As for HS57T BREAST, the surviving fraction came to 0.973 ± 0.08 in the assay with 17-AAG (0.5 nM); 0.919 ± 0.025 in the assay with 17-AAG (1 nM); 0.699 ± 0.064 in the assay with 17-AAG (5 nM); 0.263 ± 0.032 with 17-AAG (10 nM); 0.134 ± 0.011 in the assay with 17-AAG (50 nM); 0.126 ± 0.0038 with 17-AAG (100 nM). The surviving fraction was 0.105 ± 0.0035 with 17-AAG (500 nM); 0.106 ± 0.0049 with 17-AAG (1000 nM); 1.02 ± 0.026 in the assay with FLUOROURACIL (0.5 nM); 1.04 ± 0.086 with FLUOROURACIL (1 nM); 1.07 ± 0.056 in the assay with FLUOROURACIL (5 nM); 0.995 ± 0.044 in the assay with FLUOROURACIL (10 nM). Also, the surviving fraction in the assay with FLUOROURACIL (50 nM) was determined as 0.972 ± 0.044; with FLUOROURACIL (100 nM), 1 ± 0.041; with FLUOROURACIL (500 nM), 0.926 ± 0.059; with FLUOROURACIL (1000 nM), 0.734 ± 0.061.

As for HS578T BREAST, the surviving fraction came out at 0.904 ± 0.057 in the assay with 17-AAG (0.5 nM); 0.928 ± 0.033 with 17-AAG (1 nM); 0.525 ± 0.1 with 17-AAG (5 nM); 0.409 ± 0.051 in the assay with 17-AAG (10 nM); 0.281 ± 0.049 with 17-AAG (50 nM); 0.234 ± 0.022 with 17-AAG (100 nM). Moreover, the surviving fraction with 17-AAG (500 nM) came to 0.213 ± 0.026; in the assay with 17-AAG (1000 nM), 0.222 ± 0.026; with FLUOROURACIL (0.5 nM) it was 0.839 ± 0.2; with FLUOROURACIL (1 nM) it was 1.04 ± 0.043; with FLUOROURACIL (5 nM) it was 0.904 ± 0.054; with FLUOROURACIL (10 nM), 0.856 ± 0.1. The surviving fraction with FLUOROURACIL (50 nM) stood at 0.902 ± 0.19; with FLUOROURACIL (100 nM), 0.817 ± 0.15; in the assay with FLUOROURACIL (500 nM), 0.793 ± 0.071; with FLUOROURACIL (1000 nM) it was 0.708 ± 0.041.
